≈ marks a conversion by molar mass, not a printed value. Read-outs that look alike come from different tables or passages of the source. Numbered stars: 1 amine (or outer) side, 2 acyl side, 3 side chain; on linkers, the order of the positions; unused ones are H or OH. Bridge positions count the residues as written; N and C are the ends. Square brackets hold non-standard residues; d marks the D form. Peptide text beside a SMILES is read from it. * marks the point of attachment. Phe(3-Me) = Cc1cccc(C[C@H](N)C(=O)O)c1; Pro(4S-Me) = C[C@@H]1CN[C@H](C(=O)O)C1; NH(4-Cl-2-F-phenyl) = Fc1cc(Cl)ccc1N*; Pro(4R-Me) = C[C@H]1CN[C@H](C(=O)O)C1; Propanoyl(3-NMe2) = CN(C)CCC(=O)*; Hyp = O=C(O)[C@@H]1C[C@@H](O)CN1; NH(4-Me-phenyl) = Cc1ccc(N*)cc1; aThr = C[C@H](O)[C@H](N)C(=O)O; Pip = O=C(O)[C@@H]1CCCCN1; CO = O=C([*:1])[*:2]

For one data set, the system named is E. faecails. The experiment in a line: Minimal inhibitory concentration, microbroth dilution. The class given is cell-based. Particulars: Enterococcus faecalis. A digest of the protocol:
(§1)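 MICs were determined by CLSI broth microdilution, using two-fold compound dilutions from a final 200 μM and about 10^5 cfu/mL inoculum. Plates were incubated aerobically at 37 °C overnight. The MIC was read visually as the lowest concentration preventing growth.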
In general terms: Broth dilution looks for growth in wells or tubes with falling amounts of substance.

The next data set has as its system MRSA NRS70. The description is as above. The class given is cell-based. Particulars: Staphylococcus aureus. A digest of the protocol:
as §1

The next data set deals with S. aureus ATCC 29213. The description is as above. The class given is cell-based. The settings on record: Staphylococcus aureus. An outline of the steps:
as §1

The next data set concerns S. aureus USA 300. The description is as above. The settings on record: Staphylococcus aureus. In kind it is cell-based. A digest of the protocol: as §1
Data set [1] in a line: Plasma protein binding, rapid equilibrium dialysis. The class given is in vitro ADME, mouse. On the procedure:
This assay determines plasma protein binding of a drug/compound and free drug concentration in plasma using rapid equilibrium dialysis, which allow the aqueous component of plasma containing the free drug/compound through a dialysis membrane (MWCO˜8,000).
Solutions were prepared at 10 mM in DMSO. Dulbecco's phosphate buffered saline (DPBS; pH 7.4) was obtained from Invitrogen (Carlsbad, Calif.). Single-Use RED (rapid equilibrium dialysis) device was obtained from Thermo scientific (Rockford, Ill.). Human plasma was obtained from Innovative Research INC (Novi, Michigan, Ill).
Sample preparation for plasma protein binding was modified from Waters' method. (Waters et al. (2008) J. Pharm. Sci. 97(10): 4586-95). The Teflon base plate with the RED inserts (MWCO 8 K) were allowed to use without any pre-condition the membrane inserts. Human plasma was thawed and centrifuged at 1000 rpm for 2 min to remove any particulates. Each compound was prepared at 10 μM in human plasma. This was done by adding 1 μL, of drug solution (10 mM in DMSO) to 1000 μL, of human plasma (0.1% DMSO). Spiked plasma solutions (300 μL) were placed into the sample chamber (indicated by the red ring) and 500 μL, of DPBS into the adjacent chamber. The plate was sealed and incubated at 37° C. on an orbital shaker (100 rpm) for 4 hours. After incubation, the seal was removed from the RED plate and the volume of the insert confirmed—little to no volume change occurred. Aliquots (50 μL) were removed from each side of the insert and dispensed into a 96-well deep plate. An equal volume of blank plasma or DPBS was added to the required wells to create analytically identical sample matrices (matrix matching). To each sample 200 μL, of ACN containing 4 μg/mL warfarin IS was added. All of the plates were sealed and mixed well at 600 rpm for 10 min and were centrifuged at 4000 rpm for 20 min. The supernatants (120 μL) were transferred to analytical plates for analysis by LCMS. Conditions for Waters ACQUITY-UPLC-MS-UV system were described separately. The test compound concentrations were quantified in both buffer and plasma chambers via peak areas relative to the internal standard. The percentage of the test compound bound to plasma was calculated on following equations: % Free=(Concentration buffer chamber/concentration plasma chamber)×100% and % Bound=100%-% Free.
On the technique in general: In equilibrium dialysis free small molecules cross a membrane that holds back macromolecules.

Another data set is described as follows: Plasma pharmacokinetics. The class given is in vivo, male BALB/c mice. Particulars: male, BALB/c, mouse, in vivo, iv.
The mark [2] stands for this setting: MIC, read-out: Minimal Inhibitory Concentrations (μM) E. faecails.
Setting [3] is: MIC, read-out: Minimal Inhibitory Concentrations (μM) MRSA NRS70.
Setting [4] is: ATCC29213, MIC, read-out: Minimal Inhibitory Concentrations (μM) S. aureus ATCC 29213.
[5] abbreviates: USA300, MIC, read-out: Minimal Inhibitory Concentrations (μM) S. aureus USA 300.

Broadly, the AUC(0-inf) is the area under the concentration-time curve extrapolated to infinity. A high value points to more exposure. The term AUC(0-t) denotes exposure summed from dosing to a finite time, without extrapolation to infinity. A low value points to low exposure. Usually clearance stands for the volume of plasma or blood freed of the substance per unit of time. Read a low clearance as a low capacity for elimination. Usually half-life stands for the time needed for the level to fall by half in the phase considered. Take `Cc1cccc(C[C@H](NC(=O)Nc2ccc3c(c2)OCO3)C(=O)N[C@H]2COC(=O)[C@@H]3C[C@@H](C)CN3C(=O)[C@H](C)NC(=O)[C@@H]3CCCCN3C(=O)[C@@H]3CCCN3C2=O)c1` [Compound 23, (S)-2-(3-(BENZO[D][1,3]DIOXOL-5-YL)UREIDO)-N-((2R,6S,8AS,14AS,20S,23AS)-2,6-DIMETHYL-5,8,14,19,23-PENTAOXOOCTADECAHYDRO-1H,5H,14H,19H-PYRIDO[2,1-I]DIPYRROLO[2,1-C:2′,1′-L][1]OXA[4,7,10,13]TETRAAZACYCLOHEXADECIN-20-YL)-3-(M-TOLYL)PROPANAMIDE]: in the data set on E. faecails (setting [2]), the MIC amounted to 0.625 µM (≈ 0.501 µg/mL). Besides, the MIC in the data set on MRSA NRS70 (setting [3]) was 0.625 µM (≈ 0.501 µg/mL). Moreover, the MIC in the data set on S. aureus ATCC 29213 (setting [4]) was determined as 1.25 µM (≈ 1 µg/mL). For the same molecule, the MIC in the data set on S. aureus USA 300 (setting [5]) is 1.25 µM (≈ 1 µg/mL). This molecule also came in with a Mouse in data set [1] (mouse, 4 h, 10 μM, pH 7.4) of 96.9 ± 0.1%. In addition, in the data set “Plasma pharmacokinetics”, the AUC(0-inf) was 12000 ng·h/mL, the AUC(0-t) is 11700 ng·h/mL, the “C^0” value was 25009.24 ng/mL and the clearance is 13.8 mL/min/kg. Moreover, the half-life in the data set “Plasma pharmacokinetics” was 4.57 h. In addition, the Vd in “Plasma pharmacokinetics” (10 mg/kg, Route i.v., read-out: Vss) turned out to be 2.83 L/kg.

Turning to `Cc1ccc(NC(=O)N[C@@H](Cc2cccc(C)c2)C(=O)N[C@@H]2C(=O)N3CCC[C@H]3C(=O)N3CCCC[C@H]3C(=O)N[C@@H](C)C(=O)N3C[C@@H](C)C[C@H]3C(=O)O[C@H]2C)cc1` [Compound 45, (S)-3-(M-TOLYL)-2-(3-(P-TOLYL)UREIDO)-N-((2S,6S,8AS,14AS,20S,21S,23AS)-2,6,21-TRIMETHYL-5,8,14,19,23-PENTAOXOOCTADECAHYDRO-1H,5H,14H,19H-PYRIDO[2,1-I]DIPYRROLO[2,1-C:2′,1′-L][1]OXA[4,7,10,13]TETRAAZACYCLOHEXADECIN-20-YL)PROPANAMIDE] ({NH(4-Me-phenyl)-CO}-[Phe(3-Me)][aThr]P[Pip]A[Pro(4S-Me)]; ester 2-C), the MIC amounted to 1.25 µM (≈ 0.982 µg/mL) in the data set on E. faecails (read-out: Minimal Inhibitory Concentrations (μM) E. faecails, MIC); 1.25 µM (≈ 0.982 µg/mL) with MRSA NRS70 (read-out: Minimal Inhibitory Concentrations (μM) MRSA NRS70, MIC); 1.25 µM (≈ 0.982 µg/mL) in the data set with S. aureus ATCC 29213 (ATCC29213, read-out: Minimal Inhibitory Concentrations (μM) S. aureus ATCC 29213, MIC); 10 µM (≈ 7.86 µg/mL) in the data set on S. aureus USA 300 (USA300, read-out: Minimal Inhibitory Concentrations (μM) S. aureus USA 300, MIC). The same molecule registered a Mouse in data set [1] (plasma binding, % Bound, mouse plasma) of 92.1 ± 1.3%.

Regarding `Cc1cccc(C[C@H](NC(=O)Nc2ccc(Cl)cc2F)C(=O)N[C@@H]2C(=O)N3C[C@H](OC(=O)CCN(C)C)C[C@H]3C(=O)N3CCCC[C@H]3C(=O)N[C@@H](C)C(=O)N3C[C@H](C)C[C@H]3C(=O)O[C@H]2C)c1` [Compound 46, (2R,6S,8AS,14AS,16R,20S,21S,23AS)-20-((S)-2-(3-(4-CHLORO-2-FLUOROPHENYL)UREIDO)-3-(M-TOLYL)PROPANAMIDO)-2,6,21-TRIMETHYL-5,8,14,19,23-PENTAOXOOCTADECAHYDRO-1H,5H,14H,19H-PYRIDO[2,1-I]DIPYRROLO[2,1-C:2′,1′-L][1]OXA[4,7,10,13]TETRAAZACYCLOHEXADECIN-16-YL 3-(DIMETHYLAMINO)PROPANOATE] ({NH(4-Cl-2-F-phenyl)-CO}-[Phe(3-Me)][aThr][Hyp](Propanoyl(3-NMe2))[Pip]A[Pro(4R-Me)]; ester 2-C), the MIC with E. faecails (setting [2]) came out at 0.156 µM (≈ 0.147 µg/mL); in the data set with MRSA NRS70 (setting [3]), 0.313 µM (≈ 0.294 µg/mL); in the data set on S. aureus ATCC 29213 (setting [4]) it was 0.313 µM (≈ 0.294 µg/mL); in the data set on S. aureus USA 300 (setting [5]), 0.313 µM (≈ 0.294 µg/mL). For the same molecule, the Mouse in data set [1] (mouse, 4 h, 10 μM, pH 7.4) is 93.0 ± 0.8%.
